Data: patent US5843941A, “Ras farnesyl transferase inhibitors” (Genentech, Inc., priority 1994, dated 1998)
Like-named read-outs stand apart in the source and are kept apart here.

What was measured:
[1] = molecular target: T1, CAAX farnesyltransferase (Rattus norvegicus, UniProt Q02293+Q04631); experiment: In vitro farnesylation of the compound by CAAX farnesyltransferase (substrate test, thin layer chromatography); format: biochemical; settings: relative to tetrapeptide CVIM, 3.6 μM, 37° C., 30 min; for % farnesylation "A": diastereomer A; for % farnesylation "B": diastereomer B
T1 sequence (Q02293 whole entry, one chain of several): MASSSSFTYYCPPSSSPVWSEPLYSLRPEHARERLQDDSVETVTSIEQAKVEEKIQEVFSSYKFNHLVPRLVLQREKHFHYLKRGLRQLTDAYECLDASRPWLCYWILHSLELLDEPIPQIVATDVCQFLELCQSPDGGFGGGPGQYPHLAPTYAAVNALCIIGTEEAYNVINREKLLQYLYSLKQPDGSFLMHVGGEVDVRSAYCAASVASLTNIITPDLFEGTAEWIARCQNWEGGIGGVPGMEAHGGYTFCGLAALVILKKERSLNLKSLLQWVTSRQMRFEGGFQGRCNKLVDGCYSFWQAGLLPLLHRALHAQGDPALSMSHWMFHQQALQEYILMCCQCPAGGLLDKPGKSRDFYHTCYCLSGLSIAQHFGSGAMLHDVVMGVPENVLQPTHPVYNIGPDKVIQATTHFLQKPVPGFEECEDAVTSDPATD
Experimental: After incubation at 37° C. for 30 min, the reaction was stopped by addition of 2 μl of 250 mM EDTA, and the entire reaction mixture was spotted onto a plastic-backed Silica Gel G thin layer sheet (20×20 cm, Brinkmann Inst.) and placed in a tank containing n-propyl alcohol/ammonium hydroxide/water (6:3:1 v/v/v).

[2] = molecular target: T1, CAAX farnesyltransferase; experiment: In vitro inhibition of CAAX farnesyltransferase; format: biochemical; design: purified to homogeneity from rat brain homogenates; from tissue; host or cells: rat brain; alternatively recombinant enzyme from a baculovirus expression system; settings: Table D
Experimental: All compounds were tested for in vitro inhibition of CAAX protein farnesyltransferase. […] Alternatively, recombinant CAAX protein farnesyltransferase was also used in this assay. […] Seventy-two hrs after infection, the cells were harvested and disrupted and the enzyme isolated by chromatography on Q-Sepharose.
After incubation for 30 min at 37° C., the amount of [3H]famesyl group transferred to p21H-ras was measured by precipitation with SDS/trichloroacetic acid, filtration onto nitrocellulose, and scintillation counting.
Structures of the compounds tested are reproduced below. Compound numbers also refer to example numbers above.

[3] = diastereomer A, read-out: EC50 (μM) "A"
[4] = diastereomer B, read-out: EC50 (μM) "B"

Row | % farnesylation "A" [1] | % farnesylation "B" [1] | Structure (SMILES) | EC50 [2, 3] | EC50 [2, 4]
1 | < 1% | < 1% | CSCC[C@H](NC(=O)CN1C(=O)C(N(C)C(=O)[C@@H](N)CS)CCc2ccccc21)C(=O)O (stereo partly shown) [compound 9] | 1.2 µM | 0.024 µM
2 | 20% | < 1% | CSCC[C@H](NC(=O)CN1C(=O)C(NC(=O)[C@@H](N)CS)CCc2ccccc21)C(=O)O (stereo partly shown) [compound 10] | 1.6 µM | 1.4 µM
3 | – | – | CSCC[C@H](NC(=O)CN1C(=O)C(N(C)C(=O)[C@@H](N)CS)C=C(c2ccccc2F)c2cc(Cl)ccc21)C(=O)O (stereo partly drawn) [compound 80, N-[[3-[(2-amino-3-mercapto-1-oxopropyl)methylamino]-2,3-dihydro-2-oxo-5-(2'-fluorophenyl)-7-chloro-1H-1,4-benzazepin-1-yl]acetyl]-L-methionine] | 0.0003 µM | 0.0003 µM
4 | – | – | CSCC[C@H](NC(=O)CN1C(=O)C(N(C)C(=O)[C@@H](N)CS)N=C(c2ccccc2Cl)c2cc(Cl)ccc21)C(=O)O (stereo partly drawn) [compound 81, N-[[3-[(2-amino-3-mercapto-1-oxopropyl)methylamino]-2,3-dihydro-2-oxo-5-(2'-chlorophenyl)-7-chloro-1H-1,4-benzodiazepin-1-yl]acetyl]-L-methionine] | 0.43 µM | 0.0002 µM
5 | – | – | CSCC[C@H](NC(=O)CN1C(=O)C(N(C)C(=O)[C@@H](N)CS)N=C(c2ccccc2F)c2cc(Cl)ccc21)C(=O)O (stereo partly drawn) [compound 82, N-[[3-[(2-amino-3-mercapto-1-oxopropyl)methylamino]-2,3-dihydro-2-oxo-5-(2'-fluorophenyl)-7-chloro-1H-1,4-benzodiazepin-1-yl]acetyl]-L-methionine] | 0.25 µM | 0.001 µM
6 | – | – | CSCC[C@H](NC(=O)CN1C(=O)C(N(C)C(=O)[C@@H](N)CS)C=C(c2ccccc2)c2cc(Cl)ccc21)C(=O)O (stereo partly drawn) [compound 83, N-[[3-[(2-amino-3-mercapto-1-oxopropyl)methylamino]-2,3-dihydro-2-oxo-5-phenyl-7-chloro-1H-1,4-benzazepin-1-yl]acetyl]-L-methionine] | – | 0.0007 µM
7 | – | – | CSCC[C@H](NC(=O)CN1C(=O)C(N(C)C(=O)[C@@H](N)CS)C=C(c2ccccc2Cl)c2cc(Cl)ccc21)C(=O)O (stereo partly shown) [compound 92] | 0.001 µM | 0.001 µM
8 | – | – | CN(C(=O)C(N)CS)C1N=C(c2ccccc2)c2ccccc2N(Cc2cccc(C#N)c2)C1=O (stereo not shown) [compound 93, N-[[3-[(2-amino-3-mercapto-1-oxopropyl)methylamino]-2,3-dihydro-2-oxo-5-phenyl-1H-1,4-benzodiazepin-1-yl]methyl]-3-benzonitrile] | 0.82 µM | 0.004 µM
9 | – | – | COC(=O)c1cccc(CN2C(=O)C(N(C)C(=O)C(N)CS)N=C(c3ccccc3)c3ccccc32)c1 (stereo not shown) [compound 94, N-[[3-[(2-amino-3-mercapto-1-oxopropyl)methylamino]-2,3-dihydro-2-oxo-5-phenyl-1H-1,4-benzodiazepin-1-yl]methyl]-3-carboxymethylbenzene] | 0.82 µM | 0.0042 µM
10 | – | – | CN(C(=O)C(N)CS)C1N=C(c2ccccc2)c2ccccc2N(Cc2cccc(C(=O)O)c2)C1=O (stereo not shown) [compound 95, N-[[3-[(2-amino-3-mercapto-1-oxopropyl)methylamino]-2,3-dihydro-2-oxo-5-phenyl-1H-1,4-benzodiazepin-1-yl]methyl]-3-carboxybenzene] | 0.88 µM | 0.0066 µM
11 | – | – | CN(C(=O)C(N)CS)C1N=C(c2ccccc2)c2ccccc2N(Cc2cccc(-c3nnn[nH]3)c2)C1=O (stereo not shown) [compound 96, N-[[3-[(2-amino-3-mercapto-1-oxopropyl)methylanino]-2,3-dihydro-2-oxo-5-phenyl-1H-1,4benzodiazepin-1-yl]methyl]-3-tetrazolylbenzene] | 0.23 µM | 0.0013 µM
12 | – | – | COC(=O)c1cccc(CN2C(=O)C(N(C)C(=O)[C@@H](N)CS)N=C(c3ccccc3)c3cc(Cl)ccc32)c1 (stereo partly shown) [compound 97, N-[[3-[(2-amino-3-mercapto-1-oxopropyl)methylamino]-2,3-dihydro-2-oxo-5-phenyl-7-chloro-1H-1,4-benzodiazepin-1-yl]methyl]-3-carboxymethylbenzene] | – | 0.0003 µM
13 | – | – | CN(C(=O)[C@@H](N)CS)C1N=C(c2ccccc2)c2ccccc2N(Cc2ccc(-c3ccccc3-c3nnn[nH]3)cc2)C1=O (stereo partly shown) [compound 98, N-[[3-[(2-amino-3-mercapto-1-oxopropyl)methylamino]-2,3-dihydro-2-oxo-5-phenyl-1H-1,4-benzodiazepin-1-yl]methyl]-4-(2-tetrazolylphenyl) benzene] | 0.84 µM | 0.006 µM
14 | – | – | Cc1cccc(CN2C(=O)C(N(C)C(=O)[C@@H](N)CS)N=C(c3ccccc3)c3cc(Cl)ccc32)c1 (stereo partly shown) [compound 102, N-[[3-[(2-amino-3-mercapto-1-oxopropyl)methylamino]-2,3-dihydro-2-oxo-5-phenyl-7-chloro-1H-1,4-benzodiazepin-1-yl]methyl]-3-methylbenzene] | 0.11 µM | 0.038 µM
15 | – | – | CN(C(=O)[C@@H](N)CS)C1N=C(c2ccccc2)c2cc(Cl)ccc2N(Cc2cccc(C(F)(F)F)c2)C1=O (stereo partly shown) [compound 103, N-[[3-[(2-amino-3-mercapto-1-oxopropyl)methylamino]-2,3-dihydro-2-oxo-5-phenyl-7-chloro-1H-1,4-benzodiazepin-1-yl]methyl]-3-trifluoromethylbenzene] | 0.0074 µM | 0.0074 µM
16 | – | – | Cc1ccc(CN2C(=O)C(N(C)C(=O)[C@@H](N)CS)N=C(c3ccccc3)c3cc(Cl)ccc32)cc1 (stereo partly shown) [compound 104, N-[[3-[(2-amino-3-mercapto-1-oxopropyl)methylamino]-2,3-dihydro-2-oxo-5-phenyl-7-chloro-1H-1,4-benzodiazepin-1-yl]methyl]-4-methylbenzene] | 0.0048 µM | 0.0048 µM
17 | – | – | CN(C(=O)[C@@H](N)CS)C1N=C(c2ccccc2)c2cc(Cl)ccc2N(Cc2ccccc2Cl)C1=O (stereo partly shown) [compound 107, N-[[3-[(2-amino-3-mercapto-1-oxopropyl)methylamino]-2,3-dihydro-2-oxo-5-phenyl-7-chloro-1H-1,4-benzodiazepin-1-yl]methyl]-2-chlorobenzene] | 0.006 µM | 0.006 µM
18 | – | – | CSCC[C@H](NC(=O)CN1C(=O)C(N(C)C(=O)[C@@H](N)CSSC(C)(C)C)C=C(c2ccccc2F)c2cc(Cl)ccc21)C(=O)OC1CCCCC1 (stereo partly drawn) [compound 113, N-[[3-[(2-amino-3-tert-butylthiomercapto-1-oxopropyl)methylamino]-2,3-dihydro-2-oxo-5-(2'-fluorophenyl)-7-chloro-1H-1,4-benzazepin-1-yl]acetyl]-L-methionine cyclohexyl ester] | > 3 µM | > 3 µM
19 | – | – | CSCC[C@H](NC(=O)CN1C(=O)C(N(C)C(=O)[C@@H](N)CSSC(C)(C)C)N=C(c2ccccc2)c2ccccc21)C(=O)OC(C)(C)C (stereo partly drawn) [compound 118, N-[[3-[(2-amino-3-tert-butylthiomercapto-1-oxopropyl)methylamino]-2,3-dihydro-2-oxo-5-phenyl-1H-1,4-benzodiazepin-1-yl]acetyl]-L-methionine tert-butyl ester] | – | 0.9 µM

Row | Structure (SMILES) | % farnesylation "A" [1] | % farnesylation "B" [1] | EC50 [2, 3] | EC50 [2, 4]
20 | CSCC[C@H](NC(=O)CN1C(=O)C(N(C)C(=O)[C@@H](N)CS)N=C(c2ccccc2)c2ccccc21)C(=O)O (stereo partly drawn) [compound 27, N-[[3-[(2-amino-3-mercapto-1-oxopropyl)methylamnino]-2,3-dihydro-2-oxo-5-phenyl-1H -1,4-benzodiazepin-1-yl]acetyl]-L-methionine] | 5% | < 1% | 0.8 µM | 0.0003 µM
